Results: ChEMBL document CHEMBL4699598, “Discovery of Novel Substituted N-(4-Amino-2-chlorophenyl)-5-chloro-2-hydroxybenzamide Analogues as Potent Human Adenovirus Inhibitors” (J Med Chem, 2020)

Legend:
Human adenovirus 5 [1] = test: Antiviral activity against Human adenovirus 5 infected in 293beta5 cells assessed as inhibition of plaque formation at 10 uM incubated for 7 days by GFP reporter gene assay relative to control; assay type: functional; conditions: Human mastadenovirus C, HEK293, 168 h, time 7 day
[2] = Cytotoxicity against human A549 cells assessed as reduction in cell viability incubated for 48 hrs by alamarBlue assay; assay type: cell-based
[3] = Selectivity index, ratio of CC50 for cytotoxicity against human A549 cells assessed as reduction in cell viability incubated for 48 hrs by alamarBlue assay to IC50 for antiviral activity against Human adenovirus 5 infected in 293beta5 cells assessed as inhibition of plaque formation incubated for 7 days by GFP reporter gene assay; assay type: toxicity, cell-based; conditions: read-out: Ratio CC50/IC50
Human adenovirus 5 [4] = test: Antiviral activity against GFP-fused Human adenovirus 5 infected in 293beta5 cells assessed as inhibition of plaque formation incubated for 7 days by GFP reporter gene assay; assay type: functional, organism-based; conditions: Human mastadenovirus C, HEK293, 168 h
Human adenovirus 5 [5] = test: Antiviral activity against Human adenovirus 5 infected in 293beta5 cells assessed as inhibition of virus infection at 10 fold IC50 measured after 60 mins by GFP reporter gene assay relative to control; assay type: functional, HEK293; conditions: 1 h
Human betaherpesvirus 5 = test: Antiviral activity against human cytomegalovirus infected in HFF cells assessed as inhibition of viral replication by measuring number of DNA copies at 5 uM incubated for 72 hrs by RT-PCR analysis (reference value: 100 +/- 25.56 %); assay type: functional; design: scale not given: the % may be the effect or the level left
[6] = Toxicity against cyclophosphamide-immunosuppressed golden syrian hamster assessed as loss of body weight at 1 mg/kg, administered for 14 days; assay type: organism-based, Mesocricetus auratus; conditions: in vivo, 336 h, time 14 day
Human adenovirus 5 [7] = test: Antiviral activity against wild-type Human adenovirus 5 infected in human A549 cells assessed as inhibition of viral DNA replication by measuring number of viral DNA copies at 5 uM after 24 hrs by RT-qPCR analysis (reference value: 100 +/- 0.16 %); assay type: functional; design: scale not given: the % may be the effect or the level left
Human adenovirus 5 [8] = test: Antiviral activity against WT-Human adenovirus 5 infected in A549 cells assessed as fold reduction in virus yield at 10 fold of IC50 after 48 hrs endpoint dilution method; assay type: functional
Human adenovirus 5 [9] = test: Antiviral activity against wild-type Human adenovirus 5 infected in human A549 cells assessed as inhibition of viral entry by measuring nuclear associated viral genome level at 10 fold IC50 incubated for 45 mins by RT-PCR analysis (reference value: 100 +/- 1.07 %); assay type: functional; design: scale not given: the % may be the effect or the level left; conditions: 0.75 h

Structure (SMILES) | IC50 (Human adenovirus 5 [4]) | inhibition at 10 µM (Human adenovirus 5 [1]) | CC50 at 48 h [2] | selectivity ratio at 48 h [3] | further results
CC(=O)Nc1ccc(NC(=O)c2cc(Cl)ccc2O)c(Cl)c1 |  | 0% |  |  | 
Nc1ccc(NC(=O)c2cc(Cl)ccc2O)c(Cl)c1 |  | 0% |  |  | 
CN1CCC(CNc2ccc(NC(=O)c3cc(Cl)ccc3O)c(Cl)c2)CC1 |  | 0% |  |  | 
CN1CCC(Oc2ccc(Cl)cc2C(=O)Nc2ccc(NC3CCCC3)cc2Cl)CC1 |  | 0% |  |  | 
O=C(Nc1ccc([N+](=O)[O-])cc1Cl)c1cc(Cl)ccc1O [NICLOSAMIDE] | 0.6 µM | 100% |  |  | inhibition (INH) (Human adenovirus 5 [5]): >=50%; Activity (Human betaherpesvirus 5): 1.7%; Activity [6]: Non-Toxic
CCCN(CCC)c1ccc(NC(=O)c2cc(Cl)ccc2O)c(Cl)c1 | 0.67 µM | 100% | 10.7 µM | 16 | 
O=C(Nc1ccc(NCc2cc(Cl)cc(C(F)(F)F)c2)cc1Cl)c1cc(Cl)ccc1O | 1.79 µM |  | 30.9 µM | 17.3 | 
O=C(Nc1ccc(NCc2cc(Cl)cc(Cl)c2)cc1Cl)c1cc(Cl)ccc1O | 1.43 µM | 100% | 13.3 µM | 9.3 | 
CC1(ON(c2ccc(NC(=O)c3cc(Cl)ccc3O)c(Cl)c2)C2(C)CCCC2)CCCC1 | 0.74 µM | 100% | 18 µM | 24.3 | 
O=C(Nc1ccc(NCc2cnccc2Cl)cc1Cl)c1cc(Cl)ccc1O | 1.66 µM | 100% | 126 µM | 75.7 | 
O=C(Nc1ccc(NCc2cc(F)cc(Cl)c2)cc1Cl)c1cc(Cl)ccc1O | 1.28 µM |  | 11.1 µM | 8.7 | 
O=C(Nc1ccc(NCc2ccc(Cl)cc2)cc1Cl)c1cc(Cl)ccc1O | 1.2 µM | 100% | 59.7 µM | 49.7 | 
O=C(Nc1ccc(N(CCCO)CCCO)cc1Cl)c1cc(Cl)ccc1O |  |  | 114 µM |  | 
O=C(Nc1ccc(NCc2ccc3cn[nH]c3c2)cc1Cl)c1cc(Cl)ccc1O | 4.65 µM |  | 45.3 µM | 9.7 | 
O=C(Nc1ccc(NCCCO)cc1Cl)c1cc(Cl)ccc1O |  |  | 106 µM |  | 
O=C(Nc1ccc(NCc2cccc(C(F)(F)F)c2)cc1Cl)c1cc(Cl)ccc1O | 0.88 µM | 100% | 13.3 µM | 15.2 | 
CN(C)c1ccc(CNc2ccc(NC(=O)c3cc(Cl)ccc3O)c(Cl)c2)cc1 | 2.73 µM | 100% | 24.5 µM | 9 | 
O=C(Nc1ccc(NCc2ccc(C(F)(F)F)cc2)cc1Cl)c1cc(Cl)ccc1O | 1.43 µM |  | 62.7 µM | 43.8 | 
O=C(Nc1ccc(NCc2ccc(F)cc2)cc1Cl)c1cc(Cl)ccc1O | 3.4 µM | 100% | 54.4 µM | 16 | 
CC(C)[C@H](NC(=O)c1cc(Cl)ccc1O)C(=O)Nc1ccc([N+](=O)[O-])cc1Cl | 0.45 µM |  |  | 444 | 
O=C(Nc1ccc(NCc2cc(F)cc(C(F)(F)F)c2)cc1Cl)c1cc(Cl)ccc1O | 1.16 µM | 100% | 30.9 µM | 26.7 | 
O=C(Nc1cc(F)cc(C(F)(F)F)c1)c1cc(Cl)ccc1O | 0.18 µM |  |  | 667 | 
O=C(Nc1ccc(NCc2cc(C(F)(F)F)cc(C(F)(F)F)c2)cc1Cl)c1cc(Cl)ccc1O | 1.12 µM | 100% | 92.8 µM | 82.9 | 

Now from value to compound, other results behind:

IC50 (Human adenovirus 5 [4]) | Structure (SMILES) | inhibition at 10 µM (Human adenovirus 5 [1]) | CC50 at 48 h [2] | selectivity ratio at 48 h [3] | further results
2.58 µM | O=C(Nc1ccc(NCc2ccc(Br)s2)cc1Cl)c1cc(Cl)ccc1O | 100% | 20.7 µM | 8 | 
3.83 µM | CC(C)[C@H](NC(=O)c1cc(Cl)ccc1O)C(=O)Nc1ccc(NC2CCCC2)cc1Cl |  | 111 µM | 28.9 | 
1.24 µM | O=C(Nc1ccc(NCC2CCCC2)cc1Cl)c1cc(Cl)ccc1O | 100% | 21.5 µM | 17.3 | 
3.61 µM | COc1ccc(CNc2ccc(NC(=O)c3cc(Cl)ccc3O)c(Cl)c2)cc1 | 100% | 80.7 µM | 22.4 | 
0.32 µM | CCCCCCC(C)Nc1ccc(NC(=O)c2cc(Cl)ccc2O)c(Cl)c1 (stereo not drawn) | 100% | 23.5 µM | 73.4 | 
1.04 µM | O=C(Nc1ccc(NC2CCCC2)cc1F)c1cc(Cl)ccc1O |  | 51 µM | 49.1 | 
0.84 µM | O=C(Nc1ccc(NC2CCCC2)c(Cl)c1)c1cc(Cl)ccc1O | 100% | 16.9 µM | 20.1 | 
1.72 µM | CS(=O)(=O)Nc1ccc(Cl)cc1C(=O)Nc1ccc(NC2CCCC2)cc1Cl |  | 35.4 µM | 20.6 | 
1.92 µM | CN(C)c1ccc(NC(=O)c2cc(Cl)ccc2O)c(Cl)c1 | 100% | 85.1 µM | 44.3 | 
1.34 µM | O=C(Nc1ccc(NC2CCCCC2)cc1Cl)c1cc(Cl)ccc1O |  | 68.3 µM | 51.1 | 
1.38 µM | O=C(Nc1ccc(NCC2CC2)cc1Cl)c1cc(Cl)ccc1O | 100% | 14.4 µM | 10.4 | 
2.18 µM | CCNc1ccc(NC(=O)c2cc(Cl)ccc2O)c(Cl)c1 | 100% | 30.2 µM | 13.9 | 
1.34 µM | O=C(Nc1cc(NC2CCCC2)ccc1F)c1cc(Cl)ccc1O |  | 44 µM | 32.8 | 
0.5 µM | O=C(Nc1ccc(NC2CCCC2)cc1Cl)c1cc(Cl)ccc1O | 100% | 92.9 µM | 186 | Activity (Human adenovirus 5 [7]): 14.42%; inhibition (INH) (Human adenovirus 5 [5]): >=50%; Activity (Human betaherpesvirus 5): 100%; fold change (FC) (Human adenovirus 5 [8]): 17.1; Activity (Human adenovirus 5 [9]): 98.84%
0.88 µM | CC(C)Nc1ccc(NC(=O)c2cc(Cl)ccc2O)c(Cl)c1 | 100% | 11 µM | 12.5 | 
1.21 µM | CC(C)(C)OC(=O)N1CCC(Nc2ccc(NC(=O)c3cc(Cl)ccc3O)c(Cl)c2)CC1 |  | 100 µM | 82.6 | 
2.66 µM | O=C(Nc1ccc(NCc2ccncc2)cc1Cl)c1cc(Cl)ccc1O | 100% | 65.3 µM | 24.6 | 
0.89 µM | CC(C)CNc1ccc(NC(=O)c2cc(Cl)ccc2O)c(Cl)c1 | 100% | 60 µM | 67.4 | 
2.72 µM | Cc1ccc(O)c(C(=O)Nc2ccc(NC3CCCC3)cc2Cl)c1 |  | 30.9 µM | 11.4 | 
4.78 µM | O=C(Nc1ccc(NCc2cccnc2Cl)cc1Cl)c1cc(Cl)ccc1O | 100% | 100 µM | 21 | 
1.21 µM | CCCCCCCCC(C)Nc1ccc(NC(=O)c2cc(Cl)ccc2O)c(Cl)c1 (stereo not drawn) | 100% | 21.9 µM | 18.1 | 
0.86 µM | CCN(CC)c1ccc(NC(=O)c2cc(Cl)ccc2O)c(Cl)c1 | 100% | 55.5 µM | 64.5 | 
7.97 µM | O=C(NCc1ccc(NC2CCCC2)cc1Cl)c1cc(Cl)ccc1O |  | 28.3 µM | 3.6 | 
2.78 µM | CC(C)(C)OC(=O)NCCNc1ccc(NC(=O)c2cc(Cl)ccc2O)c(Cl)c1 | 100% | 25 µM | 9 | 
0.62 µM | O=C(Nc1ccc(N(CC2CC2)CC2CC2)cc1Cl)c1cc(Cl)ccc1O | 100% | 12.8 µM | 20.7 | 
2.52 µM | O=C(Nc1ccc(NCc2ccccc2)cc1Cl)c1cc(Cl)ccc1O | 100% | 19.7 µM | 7.8 | 
1.84 µM | O=C(Nc1ccc(NCc2ccc(Br)cc2)cc1Cl)c1cc(Cl)ccc1O | 100% | 40.9 µM | 22.2 | 
5.04 µM | CCCNc1ccc(NC(=O)c2cc(Cl)ccc2O)c(Cl)c1 | 100% | 22.5 µM | 4.5 | 
2.26 µM | O=C(Nc1ccc(NCc2cccc(Br)n2)cc1Cl)c1cc(Cl)ccc1O | 100% | 92.3 µM | 40.8 | 
2.6 µM | O=C(Nc1ccc(NC2CCCC2)cc1)c1cc(Cl)ccc1O |  | 10 µM | 3.9 | 
